Literature values, collected in US20130071871A1, “ENZYMATIC DETERMINATION OF LITHIUM IONS USING PHOSPHOGLUCOMUTASE” (SPECIALTY ASSAYS, INC., priority 2011, published 2013).

Question: With [Li] [Lithium] as the compound, how does the highly toxic level (level chosen for the elevated lithium standard, well above the therapeutic range) read?
Answer: Its highly toxic level is roughly 3 mmol/L.

Question: What about the “serum level too high, severe toxic side effects can occur” value (serum) of the same compound?
Answer: The value was greater than 1200 µM.
